Test results from US10669256B2, “Crystalline forms of lasmiditan, preparation methods, pharmaceutical compositions and uses thereof” (priority 2016, dated 2020).
Entries after “also recorded” stand apart in the source; their conditions may differ. Structures can show the parent of a compound that is named as a salt.

Experiments:
[1] = Solid state stability experiment (XRD after storage at room temperature under dry condition); type: physicochemical; conditions: for 1 day test results (solid form by XRD): stored 1 day; for 10 days test results (solid form by XRD): stored 10 days
Method: X-ray powder diffraction (XRPD): performed on Bruder D8 Advance diffractometer. Samples were tested at room temperature. Testing conditions: […] 3-40°, step size 0.02°, and speed 0.2 s/step.
Solid state stability experiment: Placed 20 mg of each of lasmiditan amorphous form of preparation Example 1, lasmiditan hydrochloride amorphous of Preparation Example 2, lasmiditan Form 1, lasmiditan Form 2, lasmiditan Form 3, lasmiditan hydrochloride Form A, lasmiditan hydrochloride Form B, lasmiditan hydrochloride Form C, and lasmiditan hydrochloride Form E of the present invention at room temperature under dry condition, took the samples out and analyzed by XRD at the corresponding time, their XRD pattern are shown in FIGS. 16-18 and FIGS. 46-50.

[2] = Dynamic vapor sorption / isothermal sorption (hygroscopicity); type: physicochemical; conditions: for weight change (isothermal sorption plot): between 0 to 80% RH; for weight change (DVS isothermal sorption plot): between 20 to 80% RH
Method: Dynamic vapor sorption data and isothermal sorption data were collected on TA Instruments Q5000 TGA. Method: A sample of 1 to 10 mg was placed in a platinum pan; the weight change of the sample during the change in relative humidity from 0% to 80% to 0% was measured.

Structure (SMILES)	1 day test results (solid form by XRD) [1]	10 days test results (solid form by XRD) [1]	weight change (isothermal sorption plot) [2] [%]	weight change (DVS isothermal sorption plot) [2] [%]	1 day test results (solid form by XRD) ([1]; hydrochloride)	10 days test results (solid form by XRD) ([1]; hydrochloride)	weight change (isothermal sorption plot) ([2]; hydrochloride) [%]	also measured
CN1CCC(C(=O)c2cccc(NC(=O)c3c(F)cc(F)cc3F)n2)CC1 [Lasmiditan Form 1, 2,4,6-trifluoro-N-[6-(1-methyl-piperidine-4-carbonyl)pyridin-2-yl]-benzamide]	Form 1	Form 1	0.1	0.1	–	–	–	10 days test results (solid form by XRD) ([1]; listed as lasmiditan Form 1): remained unchanged; also recorded: still remained their original forms
CN1CCC(C(=O)c2cccc(NC(=O)c3c(F)cc(F)cc3F)n2)CC1 [Lasmiditan Form 2, 2,4,6-trifluoro-N-[6-(1-methyl-piperidine-4-carbonyl)pyridin-2-yl]-benzamide]	Form 2	Form 2	0.1	0.1	–	–	–	10 days test results (solid form by XRD) ([1]; listed as lasmiditan Form 2): still remained their original forms; also recorded: remained unchanged
CN1CCC(C(=O)c2cccc(NC(=O)c3c(F)cc(F)cc3F)n2)CC1 [Lasmiditan Form 3, 2,4,6-trifluoro-N-[6-(1-methyl-piperidine-4-carbonyl)pyridin-2-yl]-benzamide]	Form 3	Form 3	0.7	–	–	–	–	10 days test results (solid form by XRD) ([1]; listed as lasmiditan Form 3): still remained their original forms; also recorded: remained unchanged
CN1CCC(C(=O)c2cccc(NC(=O)c3c(F)cc(F)cc3F)n2)CC1 [Lasmiditan amorphous form, 2,4,6-trifluoro-N-[6-(1-methyl-piperidine-4-carbonyl)pyridin-2-yl]-benzamide, reference compound]	began to crystallize	–	9.5	9.5	–	–	–	weight change (isothermal sorption plot) ([2]; listed as Preparation Example 1): 9.5%
CN1CCC(C(=O)c2cccc(NC(=O)c3c(F)cc(F)cc3F)n2)CC1 [Lasmiditan hydrochloride Form A, lasmiditan hydrochloride]	–	–	–	–	Form A	Form A	0.1	10 days test results (solid form by XRD) ([1]; listed as lasmiditan hydrochloride Form A, hydrochloride): remained unchanged; also recorded: still remained their original forms
CN1CCC(C(=O)c2cccc(NC(=O)c3c(F)cc(F)cc3F)n2)CC1 [Lasmiditan hydrochloride Form B, lasmiditan hydrochloride]	–	–	–	–	Form B	Form B	4.2	10 days test results (solid form by XRD) ([1]; listed as lasmiditan hydrochloride Form B, hydrochloride): remained unchanged; also recorded: still remained their original forms
CN1CCC(C(=O)c2cccc(NC(=O)c3c(F)cc(F)cc3F)n2)CC1 [Lasmiditan hydrochloride Form C, lasmiditan hydrochloride]	–	–	–	–	Form C	Form C	0.9	10 days test results (solid form by XRD) ([1]; listed as lasmiditan hydrochloride Form C, hydrochloride): remained unchanged; also recorded: still remained their original forms
CN1CCC(C(=O)c2cccc(NC(=O)c3c(F)cc(F)cc3F)n2)CC1 [Lasmiditan hydrochloride Form E, lasmiditan hydrochloride]	–	–	–	–	Change to Form A	–	–	1 day test results (solid form by XRD) ([1]; listed as lasmiditan hydrochloride Form E, hydrochloride): converted to Form A
CN1CCC(C(=O)c2cccc(NC(=O)c3c(F)cc(F)cc3F)n2)CC1 [Lasmiditan hydrochloride amorphous form, lasmiditan hydrochloride, reference compound]	–	–	–	–	began to crystallize	–	8.1	weight change (isothermal sorption plot) ([2]; listed as Preparation Example 2, hydrochloride): 8.1%
